Measurements published in the METLIN SMRT retention time set (Domingo-Almenara et al. 2019).

Assay: gradient 5% acetonitrile 3 min, to 50% in 2 min, to 85% in 15 min, held 3 min, 100 µL/min
Conditions: column: Zorbax Extend-C18 2.1 x 50 mm; eluents: water / acetonitrile, 0.1% formic acid
Outline: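 Retention times of pure standards were taken from adduct peaks that were selected by computer and manually inspected. Over 3 months, mixtures of ~100 molecules were run by HPLC–quadrupole time-of-flight mass spectrometry in positive and negative ionization mode. The Zorbax Extend-C18 column (2.1 × 50 mm, 1.8 μm) ran at 100 μL/min in water and acetonitrile, each containing 0.1% formic acid, with 40 μL dead volume and 900 μL dwell volume.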

Row | Structure (SMILES) | RP-LC retention time [s]
1 | CN1C(=O)COc2cc(-c3noc(C(=O)NCCc4ccc(S(N)(=O)=O)cc4)n3)ccc21 | 721
2 | O=C(NCc1ccco1)c1c(-c2ccccc2)nnc2ccccc12 | 756
3 | CCc1ccc(-n2c(-c3ccc(Cl)cc3)cn3c4c(=O)n(C)c(=O)n(C)c4nc23)cc1 | 1150
4 | CCOc1ccc(NC(=O)C2(C)Oc3cccnc3NC2=O)cc1 (stereo not given) | 740
5 | Cc1nnc2cc(N3CCN(C(=O)c4cccc(N(C)C)c4)CC3)cnn12 | 496
6 | CCn1cc(CN2CC(Oc3ccc(-c4noc(-c5ccncc5)n4)cc3)C2)cn1 | 633
7 | CCN1CCC(N(Cc2cccs2)C(=O)Nc2cc(OC)c(OC)c(OC)c2)CC1 | 628
8 | COc1ccc2c(c1)C1(CCN(S(=O)(=O)c3ccc4c(c3)CC(=O)N4C)C1)C(=O)N2C (stereo not given) | 744
9 | CCC(CC)C(=O)Nc1nc(-c2ccccc2)c(-c2ccccc2)o1 | 1040
10 | Cc1sc(-c2ccn[nH]2)cc1NC(=O)c1cccc(N(C)C)c1 | 995
11 | CCn1ccc(C(=O)Nc2cccc(OCc3nnc(-c4ccc(Cl)cc4)o3)c2)n1 | 961
12 | O=C(NCc1ccccc1)N1CCN(c2ncccc2-c2nnc(C3CC3)o2)CC1 | 738
13 | CN(C)S(=O)(=O)c1ccc(-c2nnc(C(=O)N3CCCCC3)o2)cc1 | 824
14 | COc1ccc(Cl)cc1NC(=O)C(=O)c1cccn1C | 1140
15 | CC(=O)c1cccc(NC(=O)c2cnn3c4c(cnc23)CCCCCC4)c1 | 1030
16 | COc1ccc(NS(=O)(=O)c2cc(-c3cc(C(F)(F)F)[nH]n3)sc2C)cc1Cl | 995
17 | O=C(NC1CCc2nnc(C3CC3)n2CC1)c1cc(C2CC2)[nH]n1 (stereo not given) | 581
18 | CCS(=O)(=O)c1nc2ccc(NS(=O)(=O)c3cc(C)c(C)cc3C)cc2s1 | 972
19 | COc1cccc(Cn2nnc(C(=O)O)c2C)c1 | 666
20 | CC(C)CN1CC(c2nc(-c3ccccc3)no2)C2(CCCC2)C1 (stereo not given) | 763
21 | Cc1ccc(C)c(NC(=O)C2CCN(S(=O)(=O)c3c(C)[nH]c(C)c3C(=O)N3CCCC3)CC2)c1 | 726
22 | CSc1ccc(NC(=O)N2CCN(c3ccc(C(F)(F)F)cn3)CC2)cc1 | 1010
23 | CC1Oc2ccccc2N(CC(=O)N2CCCN(c3cc(=O)n(C(C)C)c(=O)n3C(C)C)CC2)C1=O (stereo not given) | 845

Row | Structure (SMILES) | RP-LC retention time [s]
24 | Cc1ccc(CN2CCCN(CC(=O)NC(C)CCc3ccccc3)S2(=O)=O)cc1 (stereo not given) | 1050
25 | O=C(Cc1cccc(F)c1)N1CCCCC1c1nncn1CC1CC1 (stereo not given) | 677
26 | COc1ccc(NC(=O)C2CCCN(c3nnc4ccc(Cl)cn34)C2)cc1OC (stereo not given) | 701
27 | Cn1ccc2cc(S(=O)(=O)N3CCCC(C(=O)NCCN4CCCCCC4)C3)ccc21 (stereo not given) | 668
28 | COc1ccc(-c2noc(C3CCCN3C(=O)Nc3ccc(C)c(C)c3)n2)cc1 (stereo not given) | 925
29 | CCSc1nnc(NC(=O)C2CCCN(c3ccc(-c4ccco4)nn3)C2)s1 (stereo not given) | 672
30 | Cn1nc(-c2nc(C3CC3)no2)c2c1CCN(C(=O)c1ccncc1)C2 | 628
31 | CCNC(=O)c1cc(=O)[nH]c2c(C)cccc12 | 793
32 | O=C(Nc1nc(CC(=O)N2CCCc3ccccc32)cs1)C1CC1 | 739
33 | CCCn1c(CCNC(=O)c2ccc(Cl)cc2)nc2cccnc21 | 722
34 | COc1ccccc1C1(CNC(=O)C(=O)NCCC2=CCCCC2)CCOCC1 | 998
35 | CC1CCC(NC(=O)Cn2nc(C(=O)N3CCCC3)c3ccccc32)CC1 (stereo not given) | 892
36 | Cc1nc(-c2ccccc2)nc2c1CCC(=O)N2Cc1ccco1 | 1000
37 | CS(=O)(=O)N1CCC(C(=O)Nc2ccccc2F)Oc2ccc(Cl)cc21 (stereo not given) | 960
38 | Cc1ccc(/C=C/c2onc(C)c2S(=O)(=O)N2CCC(C(=O)NCC3CCCO3)CC2)cc1 (stereo not given) | 828
39 | CCn1nccc1-c1cccc(-c2noc(-c3cc4ccccc4oc3=O)n2)c1 | 1060
40 | O=C(c1noc2c1CCCC2)N1CCc2ccccc2C1 | 923
41 | COc1ccccc1-c1noc(C2CCCN2C(=O)c2ccc(C#N)cc2F)n1 (stereo not given) | 839
42 | Cc1ccc(CN2CCC3(CC2)CC(O)(c2ccccn2)CCO3)o1 (stereo not given) | 595
43 | COC(=O)c1cccc(NC(=O)N2C[C@@H]3C[C@H](NC(=O)c4ccccc4)[C@H]2C3)c1 | 836
44 | CCC(C)(C)NS(=O)(=O)c1cc(-c2nc(C)c(C(=O)N3CCCC3)s2)n(C)c1 | 838
45 | CCCCNC(=O)Cn1c(C)nc2onc(CC)c2c1=O | 726

More lines, now with the values ahead:

Row | RP-LC retention time [s] | Structure (SMILES)
46 | 921 | Cc1nn(-c2cc(N3CCCCC3)ncn2)c(C)c1CCC(=O)Nc1ccc2c(c1)OCO2
47 | 807 | O=C(c1cc(F)ccc1F)N1CCN(c2cc(-c3ccc(F)cc3)[nH]n2)CC1
48 | 732 | COc1ccc(Cl)cc1S(=O)(=O)N1CCC(C(=O)NCCc2csc(C)n2)CC1
49 | 843 | Cn1c(=O)oc2ccc(C(=O)Nc3nc4ccccc4s3)cc21
50 | 619 | Cc1cc(C)cc(C(=O)N2CCCC(C(=O)NCCN3CCOCC3)C2)c1 (stereo not given)
51 | 651 | CC(=O)Nc1ccc(NC(=O)CN2C(=O)C3CCCCN3C(=O)c3ccccc32)cc1 (stereo not given)
52 | 673 | C#CCn1cnc2c(oc3ccccc32)c1=O
53 | 608 | CCN1CCN(C(=O)CN2C(=O)CSc3ccc(C(=O)N4CCCCC4)cc32)CC1
54 | 761 | COc1ccccc1CC(=O)N1CCCC1c1cc(C)on1 (stereo not given)
55 | 961 | CCOC(=O)C1CCN(C(=O)c2ccc(-c3csc(C4CC4)n3)cc2)CC1
56 | 735 | CCCCNC(=O)C1CCCN(c2ccc(-c3ccc(C)c(C)c3)nn2)C1 (stereo not given)
57 | 600 | Cc1cccc2nnc(N3CCCN(C(=O)c4ccccc4Cl)CC3)n12
58 | 816 | COCCN1C(=O)c2ccccc2C(C(=O)Nc2ccc3c(c2)OCO3)C12CCCC2 (stereo not given)
59 | 624 | CS(=O)(=O)c1ccc(NCCCC(=O)O)c([N+](=O)[O-])c1
60 | 995 | CSc1ccccc1NC(=O)C(=O)NCC(C)(O)c1ccco1 (stereo not given)
61 | 946 | COc1ccc(CC(=O)N2CCc3cn(C)c4cccc(c34)C2)cc1
62 | 724 | COc1ccc(Cc2nc(-c3ccc4nnc(C)n4c3)no2)cc1OC
63 | 715 | COc1ccc(C(=O)N2CCN3CCS(=O)(=O)N(C4CC4)C(=O)C3C2)cc1 (stereo not given)
64 | 973 | CSc1cccc(NC(=O)C2CCCN(C(=O)c3ccc(Cl)cc3)C2)c1 (stereo not given)
65 | 953 | COC(=O)c1ccc2c(=O)n(-c3cccc(C)c3)c(N3CCCC3)nc2c1
66 | 674 | COc1ccc(NC(=O)Cn2nc3n(c2=O)CCCC3)cc1Cl
67 | 595 | Fc1ccc(-c2n[nH]c(C3CCN(Cc4ccoc4)CC3)n2)cc1
68 | 972 | COc1ccc(C2(C(=O)N3CC(c4nc(CCOCc5ccccc5)no4)C3)CC2)cc1

Row | RP-LC retention time [s] | Structure (SMILES)
69 | 669 | COc1nn(C)cc1C(=O)NCC(O)c1ccc(C(F)(F)F)cc1 (stereo not given)
70 | 758 | CCc1noc(NC(C)=O)c1-c1ccc(C)c(S(=O)(=O)N2CCN(C(=O)c3ccco3)CC2)c1
71 | 892 | Cc1cccc(CN2CC(=O)N(c3cccc(Cl)c3)[C@@H]3CS(=O)(=O)C[C@@H]32)c1
72 | 588 | Cc1nnc(NC(=O)CCn2cnc3ccccc3c2=O)s1
73 | 767 | COC(=O)c1ccc(Cn2cnc3nc4c(cc3c2=O)CCCC4)cc1
74 | 566 | Cc1nnc(CNC(=O)CCn2nnc3ccccc3c2=O)o1
75 | 579 | CC(C)CNC(=O)N1CCN(Cc2nc3cc(C(=O)N(C)C)ccc3o2)CC1
76 | 696 | CCOc1ncccc1CNC(=O)C1CCC1
77 | 989 | Cc1cc(C)cc(NC(=O)CSc2nccc(N3CCN(c4cc(C)ccc4C)CC3)n2)c1
78 | 988 | CCCN1C(=O)c2cc(S(=O)(=O)NCc3cccs3)ccc2Oc2cccnc21
79 | 956 | CCc1nc2cc(-c3noc(Cc4ccc(OC)c(OC)c4)n3)ccc2o1
80 | 617 | CC(C)CN1C(=O)c2cccn2CC1C(=O)NCCCN1CCCC1=O (stereo not given)
81 | 584 | COc1ccccc1CC(=O)NC1CCN(Cc2c(C)noc2C)C1 (stereo not given)
82 | 720 | COc1ccc2nc(C(=O)N3CCCCC3)cc(Nc3ccc(F)c(F)c3)c2c1
83 | 733 | Cn1c(=O)n([C@@H]2CCN(C(=O)CCc3nc4ccccc4s3)C2)c2ncccc21
84 | 929 | Cc1nn2c(CNS(=O)(=O)Cc3cc(F)cc(F)c3)c(-c3ccccc3)nc2s1
85 | 993 | COc1ccccc1-c1noc(C2CCCN2C(=O)c2cccc(OC)c2OC)n1 (stereo not given)
86 | 1400 | CC(C)(C)c1ccc(-c2nc(-c3ccc(S(=O)(=O)N4CCOCC4)cc3)no2)cc1
87 | 737 | CN(CC(=O)N1CCN(c2ccccc2)CC1)S(=O)(=O)c1ccc2c(c1)CCCC(=O)N2
88 | 892 | COc1ccc(-n2c(=O)n(C)c(=O)c3cc(C(=O)Nc4ccccc4OC)cnc32)cc1
89 | 672 | CN=C(NC#N)Nc1ccc(C2=NNC(=O)CC2C)cc1 (stereo not given)
90 | 1270 | CCc1ccccc1N(C)S(=O)(=O)c1ccccc1-c1nc(-c2ccccc2)no1
